Test results reported in US20140294763A1, “PEPTIDOMIMETIC PROTEASE INHIBITORS” (priority 2000, published 2014).
Where “and” joins values, the source holds several entries; their conditions need not be identical. Equal values may be shown once. Read-outs that look alike come from different tables or passages of the source.

Tests used:
[1] = system: HCV subgenomic RNA replicon in Huh7 cells; experiment: HCV subgenomic RNA replicon assay (Replicon Assay), TaqMan RT-PCR of replicon RNA after 48 h treatment; format: cell-based, hepatitis C virus (HCV); conditions: for Inhibition of replicon RNA accumulation: 48 hour treatment
From the text: The Replicon Assay measures the amount of HCV subgenomic RNA (replicon RNA) remaining in replicon cells (Lohman et al. Science 285:110-113 (1999)) after two days of drug treatment relative to the amount of replicon RNA in untreated cells. In this assay, the potency of compounds as HCV antiviral drugs is directly proportional to the level of inhibition of replicon RNA accumulation.
The Replicon Assay employing a cell line containing the self-replicating HCV subgenomic RNA (replicon) is described in Lohmann et al. Science 285:110-113 (1999). The Genbank accession number for the sequence of the replicon used in the experiments described herein is listed in this reference as AJ242654. This paper discloses methods for in vitro transcription of RNA from the replicon cDNA, transfection of the replicon RNA into Huh7 cells by electroporation, and selection of cells containing the replicon RNA using the antibiotic G418. Huh7 cells are a hepatoma cell line obtained from Dr. William Mason at Fox Chase Cancer Research Center (Philadelphia). These cells are publicly available from Fox Chase, and have been extensively described in the scientific literature (Nakabayashi at al. Cancer Res. 42:3858-3863 (1982)). In the experiments described herein, all of the template DNA is removed from the in vitro transcribed replicon RNA preparation prior to electroporation of this RNA into Huh7 cells by multiple treatment with DNase (three sequential treatments).
The Replicon Assay is performed as described in detail below. Briefly, Replicon cells are placed in 96 well trays at a density of 10,000 cells per well and incubated 37° C. The cells are incubated in DMEM ([…]) supplemented with 10% fetal bovine serum, glutamine, nonessential amino acids, and the antibiotic G418 (0.25 mg/ml). […] Each compound is tested at six to eight different concentrations. […] Each HCV serine protease inhibitor concentration is tested without any added interferon, as well as with the addition of six to eight different interferon doses. Similarly, interferon is tested without any added HCV serine protease inhibitor. After a 48-hour incubation with the compounds, the medium is removed from the plates, and total cellular RNA is extracted from the cells using the RNeasy-96 kit manufactured by Qiagen Inc. (Valencia, Calif.). This RNA is then analyzed by quantitative RT-PCR, or TaqMan® (Applied Biosystems, Foster City Calif.). The TaqMan® RT-PCR target is the neomycin resistance gene in the replicon RNA. The plates are configured so that there are 5 replicates of each drug treatment sample, and 16 replicates of the untreated samples. This permits greater statistical confidence in the quantitative RT-PCR data.
Analysis of the Replicon Assay data yields two values that are useful in assessing the potency of potential HCV antiviral agents. At each compound concentration tested, the level of inhibition in replicon RNA accumulation caused by the compound during two days of treatment relative to the amount of replicon RNA in untreated cells is determined. This is reported as percent inhibition. […] The IC50 is the value used to rank individual compounds tested in this assay based on their potency as HCV antiviral agents. Simple IC50 determinations are inadequate to assess the utility of compounds used in combination.
The Replicon Assay is used to measure the capacity of potential HCV antiviral compounds to inhibit the accumulation of a HCV subgenomic RNA replicon molecule in a Huh7 cell line (Lohmann et al. Replication of Subgenomic Hepatitis C Virus RNAs in a Hepatoma Cell Line. Science 285, 110-113 (1999)).

[2] = XTT metabolic assay to determine replicon cell viability; conditions: human
From the text: (§1) Inflamation Research. […] It is assumed that the level of GAPDH mRNA, which is a constitutively expressed housekeeping gene, is the same in all viable cells. […] Thus, it is postulated, as done by others using TaqMan® technology to determine the levels of particular mRNAs in human cells, that GAPDH mRNA levels are proportional to viable cell numbers (VCN) in any given sample, with the relationship of VCN=2^̂(40−CtGAPDH mRNA). The VCN is computed for each of the Replicon Assay sample wells, and then we divide the HCV Replicon RNA copy number for a specific well by the VCN for that well. Once computed, this ratio is used instead of the HCV copy number to compute inhibition (“Avg. Inh using ratio”; FIG. 14A). […] In the Replicon Assay, it is assumed that the measured inhibition of HCV RNA replicon accumulation is the sum of the actual inhibition of HCV RNA replicon accumulation and the apparent inhibition of HCV RNA replicon accumulation due to cytoxicity. […] Thus, the true anti-HCV activity of a compound in the Replicon Assay corrected for general cytotoxicity can be estimated by dividing the number of HCV replicon RNA molecules measured in each sample by the VCN, thus normalizing to the number of viable cells in each sample. […] In FIG. 14A, “Avg.

[3] = system: replicon cells (glyceraldehyde-3-phosphate dehydrogenase (GAPDH) mRNA levels); experiment: TaqMan quantitative RT-PCR of GAPDH mRNA levels in treated versus untreated replicon cells (cytotoxicity measure); conditions: treated versus untreated cells in the Replicon Assay
From the text: as §1

[4] = Hepatitis C virus, Huh-7, 48 h, read-out: IC50 HSPI, antiviral compound used individually, HCV replicon RNA accumulation, 48 h, response-surface fit (Ribavirin corrected for cytotoxicity)
[5] = read-out: IC50 HSPI, antiviral compound used individually, HCV replicon RNA accumulation, 48 h, response-surface fit (Ribavirin corrected for cytotoxicity)

Compound: CCC[C@H](NC(=O)[C@@H]1[C@H]2CCC[C@H]2CN1C(=O)[C@@H](NC(=O)[C@@H](NC(=O)c1cnccn1)C1CCCCC1)C(C)(C)C)C(=O)C(=O)NC1CC1 [Compound CU]
- Inhibition of replicon RNA accumulation ([1]; Compound CU 0.0123 μM alone (interferon-alpha 2B 0 U)): 5%
- Inhibition of replicon RNA accumulation ([1]; Compound CU 0.0370 μM alone (interferon-alpha 2B 0 U)): 8%
- Inhibition of replicon RNA accumulation ([1]; Compound CU 0.1111 μM alone (interferon-alpha 2B 0 U)): 11%
- Inhibition of replicon RNA accumulation ([1]; Compound CU 0.333 μM alone (interferon-alpha 2B 0 U)): 28%
- Inhibition of replicon RNA accumulation ([1]; Compound CU 1 μM alone (interferon-alpha 2B 0 U)): 88%
- Inhibition of replicon RNA accumulation ([1]; Compound CU 3 μM alone (interferon-alpha 2B 0 U)): 98%
- IC50 ([1]; Hepatitis C virus, Huh-7, 48 h, Compound CU as single drug treatment, initial experiment, replicon RNA accumulation 48 h): 480 nM
- IC50 [1, 4]: 469 nM
- IC50 [1, 5]: 446 nM and 587 nM and 633 nM and 605 nM and 466 nM
- CC50 ([2]; HCV replicon cells (Huh7)): 64700 nM

Compound: CCC[C@H](NC(=O)C1[C@H]2CCC[C@H]2CN1C(=O)[C@@H](NC(=O)[C@@H](NC(=O)[C@@H](C)NC(=O)OC)C1CCCCC1)C(C)(C)C)C(=O)C(=O)NC1CC1 (stereo partly shown) [Compound EC]
- IC50 [1, 4]: 384 nM
- IC50 [1, 5]: 312 nM
- CC50 ([2]; HCV replicon cells (Huh7)): > 50000 nM

Compound: CCC[C@@H](NC(=O)[C@@H]1[C@H]2CCCC2CN1C(=O)[C@@H](NC(=O)[C@H](NC(=O)c1cnccn1)C1CCCCC1)[C@H](C)CC)C(=O)C(=O)NC1CC1 (stereo partly shown) [Compound EP]
- IC50 [1, 4]: 426 nM
- CC50 [2]: > 10000 nM

Compound: NC(=O)c1ncn([C@@H]2O[C@H](CO)[C@@H](O)[C@H]2O)n1 [Ribavirin, reference compound]
- IC50 [1, 4]: 145000 nM
- IC50 ([1]; Hepatitis C virus, Huh-7, read-out: uncorrected IC50 (Avg. Inh original), not corrected for cytotoxicity): ~80000 nM
- reduction of accumulation of HCV replicon RNA (in words) ([1]; compound alone): marginally effective
- cytotoxicity (GAPDH mRNA levels, TaqMan RT-PCR) [3]: significant Ribavirin-induced cytotoxicity
